Source: patent publication US20120321647A1, “STRUCTURED RNA MOTIFS AND COMPOUNDS AND METHODS FOR THEIR USE” (YALE UNIVERSITY, priority 2010, published 2012)
Where “and” joins values, the source holds several entries; their conditions need not be identical. Equal entries are not always repeated. Where two headings read alike, the source gives them in different places. One block for each compound: values may come before it. Peptide text beside a SMILES is read from it.

Legend:
[1] = tested on: second representative of the glnA motif from a marine metagenomic sequence; assay: In-line probing of a second glnA motif representative; type: binding; conditions: for binding by the RNA: at 1 mM (data not shown)
Description: (§1) RNAs were 5′-^32P radiolabeled and subjected to in-line probing analyses, which have been described in detail previously (Soukup et al. Relationship between internucleotide linkage geometry and the stability of RNA. RNA 1999; 5:1308-1325; Regulski E E, Breaker R R. In-line probing analysis of riboswitches. Methods Mol Biol 2008; 419:53-67). Briefly, 5′ triphosphates were removed from the RNAs using alkaline phosphatase (Roche) according to the manufacturer's protocol. The dephosphorylated RNAs were 5′-^32P radiolabeled by incubation with [γ-^32P] ATP and T4 polynucleotide kinase (New England Biolabs), following the manufacturer's directions. Denaturing PAGE (6%) was subsequently employed to purify the RNAs as described above. The radiolabeled RNAs were then incubated at 23° C. in a solution containing 75 mM Tris-HCl (pH 8.3 at 23° C.), 20 mM MgCl2, 100 mM KCl, and various different potential ligands (see results section for full list) at concentrations ranging from 1 μM to 10 mM in most cases. When RNAs were subjected to in-line probing with 100 mM L-glutamate, the amino acid replaced the Tris-HCl as the buffering agent. HCl and NaOH were used to adjust this modified in-line probing solution to pH 8.3.
(§2) After incubating for approximately 40 hours, the products of in-line probing reactions were separated by denaturing 10% PAGE. The gels were then dried and imaged using a Storm 820 PhosphorImager (GE Healthcare). The relative intensities of the various degradation products were quantified using SAFA v1.1 software (Das et al. SAFA: Semi-automated footprinting analysis software for high-throughput quantification of nucleic acid footprinting experiments. RNA 2005; 11:344-354). The bands which modulated the most intensely were used to make KD estimates.

[2] = tested on: 67 glnA RNA; assay: In-line probing of 67 glnA RNA; type: binding, Synechococcus elongatus; conditions: for binding by the 67 glnA aptamer: concentrations as high as 10 mM
Description: as §1
as §2, with “estimates. In the cases where the concentrations of ligand used were insufficiently high to saturate RNA binding, the data was normalized to KD values that best explained the data assuming a standard one-to-one interaction.” for “estimates.”

[3] = tested on: 83 DP RNA; assay: In-line probing of 83 DP RNA (Downstream-peptide motif); type: binding, Synechococcus sp. CC9902; conditions: for binding by the Downstream-peptide glutamine aptamer: stated in the discussion for both aptamer subtypes, concentration not given at place; for Kd: 1-to-1 interaction, read-out: apparent KD
Description: as §1, §2

[4] = tested on: 67 glnA mutant RNA construct M1; assay: In-line probing of 67 glnA mutant M1 (disruptive mutations); type: binding, Synechococcus elongatus; conditions: two disruptive mutations in P2 stem
Method: (§3) Pairs of oligonucleotides were used in primer extension reactions to make full-length double-stranded DNA (dsDNA) products to use as templates for in vitro transcription reactions. Primers 1 and 2 were used for 67 glnA, 2 and 3 for Ml, 4 and 5 for M3, 1 and 6 for M2, 1 and 7 for M4, 8 and 9 for 83 DP, 8 and 10 for M5, and 8 and 11 for M6. A 100 μl solution containing 300 pmoles of each primer, 50 mM Tris-HCl (pH 8.3 at 23° C.), 75 mM KCl, 3 mM MgCl2, […] dithiothreitol (DTT), 1 mM of each of the four deoxynucleoside triphosphates (dNTPs), and 8 U/μl of SuperScript II Reverse Transcriptase (Invitrogen) was heated for 2 hours at 42° C. The full length dsDNA was then purified using the QIAquick PCR Purification Kit (QIAgen) following the manufacturer's protocol and was eluted in a volume of 50 […]
as §2, with “The gels were then dried and imaged using a Storm 820 PhosphorImager (GE Healthcare).” left out, “The bands which modulated the most intensely were used to make KD estimates.” left out

[5] = tested on: 67 glnA mutant RNA construct M2; assay: In-line probing of 67 glnA mutant M2 (disruptive mutations); type: binding, Synechococcus elongatus; conditions: two disruptive mutations in P3 stem
Method: as §3
as §2, with “The gels were then dried and imaged using a Storm 820 PhosphorImager (GE Healthcare).” left out, “The bands which modulated the most intensely were used to make KD estimates.” left out

[6] = tested on: construct M3; assay: In-line probing of 67 glnA construct M3 (compensatory mutations); type: binding, Synechococcus elongatus
Method: as §3
as §2, with “The gels were then dried and imaged using a Storm 820 PhosphorImager (GE Healthcare).” left out, “The bands which modulated the most intensely were used to make KD estimates.” left out

[7] = tested on: construct M4; assay: In-line probing of 67 glnA construct M4 (compensatory mutations); type: binding, Synechococcus elongatus
Method: as §3
as §2, with “The gels were then dried and imaged using a Storm 820 PhosphorImager (GE Healthcare).” left out, “The bands which modulated the most intensely were used to make KD estimates.” left out

[8] = tested on: M5 RNA; assay: In-line probing of mutant 83 DP RNA M5 (disrupted pseudoknot); type: binding, Synechococcus sp. CC9902; conditions: two disruptive mutations in the pseudoknot
Method: as §3
as §2, with “The gels were then dried and imaged using a Storm 820 PhosphorImager (GE Healthcare).” left out, “The bands which modulated the most intensely were used to make KD estimates.” left out

[9] = tested on: pfl RNA; assay: In-line probing experiments with a pfl RNA; type: binding, Clostridium acetobutylicum ATCC 824; conditions: 1 mM except where noted
Method: Some riboswitches were tested for metabolite binding using in-line probing experiments (Regulski et al. In-line probing analysis of riboswitches. Methods Mol Biol 2008, 419:53-67). RNAs tested were transcribed in vitro from a DNA template using RNA polymerase T7. In the experiments described below, no modulation in gel patterns was observed that would indicate metabolite binding.
Experiments were performed with the following RNA encoded by Clostridium acetobutylicum ATCC 824:
The following metabolites were tested at 1 mM except where noted: AICAR riboside, AICAR ribotide, SAICAR, GAR, pyruvate, guanine (100 μM), hypoxanthine (40 μM), IMP, formate, THF, dihydrofolate, 5-formyl-THF, 10-formyl-THF, methylene-THF, methenyl-THF, methyl-THF, SAICAR, glutamate, glutamine, glycine, serine, aspartate, dUMP, homocysteine, SAM, AICA, CAIR, CoA, acetyl-CoA, alanine, NAD, NADH, NADP, NADPH, dCMP, histidine, D-ribose 5′-phosphate, adenine, D-ribose, NADH, SAICAR, CAIR, glycine, PRPR, ppGpp, cAMP, HMP, ATP (600 μM), CTP (600 μM), GTP (600 μM), UTP (600 μM), AMP, ADP, GMP, GDP, UMP, UDP, uridine, and tryptophan.

[10] = tested on: pfl RNA; assay: RNase protection assay (RNase T1 and V1) with pfl RNA; type: binding, Clostridium acetobutylicum ATCC 824; conditions: shorter incubation time than in-line probing
Method: Due to the instability of PRPP, it was also tested in an RNase protection assay with RNase T1 and V1. The use of an RNase permits a shorter incubation time than used for in-line probing.

[11] = biological target: SK209-52 RNA; assay: In-line probing of SK209-52 RNA (SAM/SAH motif); type: binding, Roseobacter sp. SK209-2-6; conditions: SAM samples may contain breakdown product SAH, read-out: apparent dissociation constant (KD)
Method: RNA constructs were prepared by in vitro RNA transcription RNA using T7 RNA polymerase and the appropriate DNA templates that were created by overlap extension of synthetic DNA oligonucleotides using SuperScript II reverse transcriptase (Invitrogen) as instructed by the manufacturer. RNA transcripts were purified using denaturing (8 M urea) polyacrylamide gel electrophoresis (PAGE). RNAs were eluted from the gel, dephosphorylated using alkaline phosphatase and 5′ radiolabeled with [γ-32P] using methods reported previously (Wang et al. Riboswitches that sense S-adenosylhomocysteine and activate genes involved in coenzyme recycling. Mol Cell 2008, 29:691-702). 5′ 32P-labeled fragments resulting from in-line probing reactions were subjected to denaturing PAGE, imaged and analyzed as previously described (Wang et al. Riboswitches that sense S-adenosylhomocysteine and activate genes involved in coenzyme recycling. Mol Cell 2008, 29:691-702).

[12] = tested on: SAM-Chlorobi RNA (four RNAs with different 3′ ends); assay: In-line probing experiments with SAM-Chlorobi RNA; type: binding, Chlorobium tepidum TLS; conditions: 1 mM
Method: Some riboswitches were tested for metabolite binding using in-line probing experiments (Regulski et al. In-line probing analysis of riboswitches. Methods Mol Biol 2008, 419:53-67). RNAs tested were transcribed in vitro from a DNA template using RNA polymerase T7. In the experiments described below, no modulation in gel patterns was observed that would indicate metabolite binding. […] Experiments were performed on the following four RNAs, encoded by Chlorobium tepidum TLS, which have different 3′ ends: Lowercase letters represent G nucleotides that were added to improve transcription yield. The following metabolites were tested at 1 mM: SAM, SAH, methionine, and homocysteine.

Compound: O=C(O)CCC(=O)C(=O)O [2-oxoglutarate]
binding by the RNA [1]: rejected

Compound: NC(=O)CCCC(=O)O [5-amino-5-oxopentanoic acid]
binding by the 67 glnA aptamer ([2]; in-line probing): rejected
binding by the Downstream-peptide glutamine aptamer [3]: loss of binding

Compound: CC(=O)CC[C@H](N)C(=O)O [(S)-2-amino-5-oxo-hexanoic acid]
binding by the 67 glnA aptamer ([2]; in-line probing): rejected
binding by the Downstream-peptide glutamine aptamer [3]: reject

Compound: C[C@H](N)C(=O)N[C@@H](CCC(N)=O)C(=O)O [Ala-Gln] (H-Ala-Gln-OH)
binding by the 67 glnA aptamer ([2]; in-line probing): rejected
binding by the Downstream-peptide glutamine aptamer [3]: neither Ala-Gln nor L-glutamine t-butyl ester are bound

Compound: NC(=O)CC[C@@H](N)C(=O)O [D-glutamine]
affinity relative to its more common isomer (L-glutamine) ([2]; in-line probing): approximately 1/10
fold tighter binding of L-glutamine compared to D-glutamine ([2]; in-line probing): 10 fold
binding to 83 DP RNA ([3]; concentrations up to 10 mM): no binding was detected

Compound: NC(=O)C[C@H](N)C(=O)O [L-asparagine]
binding by the 67 glnA aptamer ([2]; in-line probing): rejected

Compound: CC(C)(C)OC(=O)[C@@H](N)CCC(N)=O [L-glutamine t-butyl ester]
binding by the 67 glnA aptamer ([2]; in-line probing): rejected
binding by the Downstream-peptide glutamine aptamer [3]: neither Ala-Gln nor L-glutamine t-butyl ester are bound

Compound: NC(=O)CC[C@H](N)C(=O)O [L-glutamine]
pattern of RNA cleavage products ([2]; 1 mM glutamine added to in-line probing assay containing 100 mM glutamate): produced the pattern of RNA cleavage products expected for glutamine binding
Kd ([2]; curve expected for a 1-to-1 RNA-ligand interaction (FIG. 30C), read-out: KD): 575 µM
Kd ([2]; in-line probing, one-to-one interaction, read-out: apparent dissociation constant (KD)): ~575 µM
Kd [1]: ~150 µM
Kd ([3]; listed as glutamine): ~5000 µM
Kd [3]: 5000 µM
structural modulation upon addition of glutamine [4]: no modulation
structural modulation upon addition of glutamine [5]: no modulation
structural modulation in response to glutamine addition [6]: regain structural modulation
structural modulation in response to glutamine addition [7]: regain structural modulation
binding to glutamine [8]: does not bind

Compound: NC(=O)CCC[C@H](N)C(=O)O [L-homoglutamine]
binding by the 67 glnA aptamer ([2]; in-line probing): rejected
binding by the Downstream-peptide glutamine aptamer [3]: reject

Compound: NCCCC[C@H](N)C(=O)O [L-lysine]
binding by the RNA [1]: rejected

Compound: CCNC(=O)CC[C@H](N)C(=O)O [L-theanine]
binding by the 67 glnA aptamer ([2]; in-line probing): rejected

Compound: NC(=O)CC[C@H](N)CC(=O)O [L-β-homo glutamine]
binding by the 67 glnA aptamer ([2]; in-line probing): rejected

Compound: CC(=O)OC[C@H](N)C(=O)O [O-acetyl-L-serine]
binding by the 67 glnA aptamer ([2]; in-line probing): rejected

modulation in gel patterns that would indicate metabolite binding [9]: did not reveal evidence of binding
Compound: O=P(O)(O)OC[C@H]1O[C@H](OP(=O)(O)OP(=O)(O)O)[C@H](O)[C@@H]1O [PRPP]
change in degradation patterns [10]: no change in degradation patterns was detected

Kd [11]: ~4.3 µM
modulation in gel patterns that would indicate metabolite binding [12]: did not reveal binding
Compound: Nc1ncnc2c1ncn2[C@@H]1O[C@H](CSCC[C@H](N)C(=O)O)[C@@H](O)[C@H]1O [SAH, S-adenosylhomocysteine]

Compound: C[S+](CC[C@H](N)C(=O)[O-])C[C@H]1O[C@@H](n2cnc3c(N)ncnc32)[C@H](O)[C@@H]1O (stereo partly shown) [SAM, S-adenosylmethionine]
Kd [11]: 8.6 µM and ~8.6 µM
modulation in gel patterns that would indicate metabolite binding [12]: did not reveal binding

binding by the RNA [1]: rejected
Compound: N=C(N)NCCCCN [agmatine]

Compound: N[C@@H](CCC(=O)O)C(=O)O [glutamate]
structural modulation ([2]; in-line probing, 100 mM glutamate as the primary buffering agent): no structural modulation was observed
binding by the RNA [1]: rejected
binding by the Downstream-peptide glutamine aptamer [3]: reject

Compound: O=C(O)CCCC(=O)O [glutaric acid]
binding by the RNA [1]: rejected

binding by the RNA [1]: rejected
Compound: NCCCCN [putrescine]

binding by the RNA [1]: rejected
Compound: Cc1ncc(COP(=O)(O)O)c(C=O)c1O [pyridoxal phosphate]

binding by the RNA [1]: rejected
Compound: O=C(O)CCC(=O)O [succinate]

binding by the RNA [1]: rejected
Compound: O=CCCC(=O)O [succinic semialdehyde]

binding by the RNA [1]: rejected
Compound: NCCCC(=O)O [γ-aminobutyric acid]
